Target: T1, human P2X4 (Homo sapiens, UniProt Q99571)
T1 sequence (Q99571 1-388): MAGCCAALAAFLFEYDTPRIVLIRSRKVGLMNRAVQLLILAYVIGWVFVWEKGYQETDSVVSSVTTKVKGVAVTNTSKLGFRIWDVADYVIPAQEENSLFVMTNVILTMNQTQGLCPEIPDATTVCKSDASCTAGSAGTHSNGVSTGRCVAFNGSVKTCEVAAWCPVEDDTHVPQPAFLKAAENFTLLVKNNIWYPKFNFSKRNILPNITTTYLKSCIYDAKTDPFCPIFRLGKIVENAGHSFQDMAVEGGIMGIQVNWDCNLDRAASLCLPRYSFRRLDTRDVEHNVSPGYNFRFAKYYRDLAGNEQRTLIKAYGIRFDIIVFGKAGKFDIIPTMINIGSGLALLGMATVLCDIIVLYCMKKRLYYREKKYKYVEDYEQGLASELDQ
Assay: Human P2X4 HEK Cell FLIPR Assay
Format: cell-based
Conditions: agonist Bz-ATP at EC80; for Emax: HEK293, HEK293 cells, percentage of maximal inhibition, read-out: Human P2X4 HEK Cells (FLIPR Assay) avg Efficacy [%]; for IC50: HEK293 cells, individual values listed where some fall outside detection range
Method in brief: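 HEK293 cells stably expressing human P2X4, Fluo8-AM loaded 30 min at 37° C, then compound 30 min at room temperature (0.5% DMSO, pH 7.4 buffer with 1.8 mM CaCl2). Bz-ATP at its daily-determined EC80 added; calcium fluorescence read over 120 sec; IC50 from peak RFU normalized to agonist control, triplicates.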

Emax	IC50	Structure (SMILES)
97%	197 nM	COc1ccc(CC(=O)Nc2ccc(-c3ccc(Cl)nc3)c(S(N)(=O)=O)c2)c(F)c1 [Example 472, N-[4-(6-Chloropyridin-3-yl)-3-sulfamoylphenyl]-2-(2-fluoro-4-methoxyphenyl)acetamide]
93%	530 nM	NS(=O)(=O)c1cc(NC(=O)Cc2ccc(C(F)F)cc2)ccc1-c1ccc(Cl)nc1 [Example 473, N-[4-(6-Chloropyridin-3-yl)-3-sulfamoylphenyl]-2-[4-(difluoromethyl)phenyl]acetamide]
93%	323 nM	NS(=O)(=O)c1cc(NC(=O)Cc2ccc(C(F)(F)F)cc2Cl)ccc1-c1ccc(Cl)nc1 [Example 474, N-[4-(6-Chloropyridin-3-yl)-3-sulfamoylphenyl]-2-[2-chloro-4-(trifluoromethyl)phenyl]acetamide]
88%	64 nM	NS(=O)(=O)c1cc(NC(=O)Cc2ccc(Cl)cc2Cl)ccc1-c1cncc(F)c1 [Example 475, 2-(2,4-Dichlorophenyl)-N-[4-(5-fluoropyridin-3-yl)-3-sulfamoylphenyl]acetamide]
82%	47 nM	NS(=O)(=O)c1cc(NC(=O)Cc2ccccc2Cl)ccc1-n1cc(C2CC2)cn1 [Example 478, 2-(2-Chlorophenyl)-N-[4-(4-cyclopropyl-1H-pyrazol-1-yl)-3-sulfamoylphenyl]acetamide]
103%	50 nM	NS(=O)(=O)c1cc(NC(=O)Cc2ccccc2Cl)ccc1-n1nnc2c(F)cc(F)cc21 [Example 481, 2-(2-Chlorophenyl)-N-[4-(4,6-difluoro-1H-benzotriazol-1-yl)-3-sulfamoylphenyl]acetamide]
73%	2340 nM	NS(=O)(=O)c1cc(NC(=O)Cc2ccccc2Cl)ccc1-n1nc2cc(F)cc(F)c2n1 [Example 482, 2-(2-Chlorophenyl)-N-[4-(4,6-difluoro-2H-benzotriazol-2-yl)-3-sulfamoylphenyl]acetamide]
63%	401 nM	N#Cc1cnn(-c2cc(C(F)(F)F)c(NC(=O)Cc3ccccc3Cl)cc2S(N)(=O)=O)c1 [Example 484, 2-(2-Chlorophenyl)-N-[4-(4-cyano-1H-pyrazol-1-yl)-5-sulfamoyl-2-(trifluoromethyl)phenyl]acetamide]
100%	128 nM	N#Cc1cnn(-c2ccc(NC(=O)Cc3cc(C(F)(F)F)ccc3Cl)cc2S(N)(=O)=O)c1 [Example 485, 2-[2-Chloro-5-(trifluoromethyl)phenyl]-N-[4-(4-cyano-1H-pyrazol-1-yl)-3-sulfamoylphenyl]acetamide]
78%	2330 nM	N#Cc1cnn(-c2cc(C(F)(F)F)c(NC(=O)Cc3cccc(C(F)(F)F)c3Cl)cc2S(N)(=O)=O)c1 [Example 488, 2-[2-Chloro-3-(trifluoromethyl)phenyl]-N-[4-(4-cyano-1H-pyrazol-1-yl)-5-sulfamoyl-2-(trifluoromethyl)phenyl]acetamide]
83%	2060 nM	NS(=O)(=O)c1c(-c2cnn(C(F)F)c2)ccc(NC(=O)Cc2ccccc2Cl)c1C(F)(F)F [Example 489, 2-(2-Chlorophenyl)-N-{4-[1-(difluoromethyl)-1H-pyrazol-4-yl]-3-sulfamoyl-2-(trifluoromethyl)phenyl}acetamide]
95%	91 nM	NS(=O)(=O)c1cc(NC(=O)Cc2cccc(C(F)(F)F)c2Cl)ccc1-c1cnn(C(F)F)c1 [Example 490, 2-[2-Chloro-3-(trifluoromethyl)phenyl]-N-{4-[1-(difluoromethyl)-1H-pyrazol-4-yl]-3-sulfamoylphenyl}acetamide]
94%	205 nM	NS(=O)(=O)c1cc(NC(=O)Cc2ccccc2Cl)c(F)cc1-c1cnn(C(F)F)c1 [Example 494, 2-(2-Chlorophenyl)-N-{4-[1-(difluoromethyl)-1H-pyrazol-4-yl]-2-fluoro-5-sulfamoylphenyl}acetamide]
75%	128 nM	CN(C)c1nc(-c2ccc(NC(=O)Cc3ccccc3Cl)cc2S(N)(=O)=O)cs1 [Example 495, 2-(2-Chlorophenyl)-N-{4-[2-(dimethylamino)-1,3-thiazol-4-yl]-3-sulfamoylphenyl}acetamide]

Further lines, the compound ahead of its results:

Structure (SMILES)	Emax	IC50
Cc1ccc(CC(=O)Nc2ccc(-c3cncc(F)c3)c(S(N)(=O)=O)c2)c(F)c1 [Example 476, 2-(2-Fluoro-4-methylphenyl)-N-[4-(5-fluoropyridin-3-yl)-3-sulfamoylphenyl]acetamide]	89%	58 nM
NS(=O)(=O)c1cc(NC(=O)Cc2ccc(C(F)F)cc2)ccc1-c1cncc(F)c1 [Example 477, 2-[4-(Difluoromethyl)phenyl]-N-[4-(5-fluoropyridin-3-yl)-3-sulfamoylphenyl]acetamide]	91%	259 nM
NS(=O)(=O)c1cc(NC(=O)Cc2ccccc2F)ccc1-n1nc2cc(F)cc(F)c2n1 [Example 479, N-[4-(4,6-Difluoro-2H-benzotriazol-2-yl)-3-sulfamoylphenyl]-2-(2-fluorophenyl)acetamide]	79%	145 nM
NS(=O)(=O)c1cc(NC(=O)Cc2ccccc2F)ccc1-n1nnc2c(F)cc(F)cc21 [Example 480, N-[4-(4,6-Difluoro-1H-benzotriazol-1-yl)-3-sulfamoylphenyl]-2-(2-fluorophenyl)acetamide]	105%	125 nM
NS(=O)(=O)c1cc(NC(=O)Cc2ccccc2Cl)ccc1-c1cnc(C(F)(F)F)s1 [Example 483, 2-(2-Chlorophenyl)-N-{3-sulfamoyl-4-[2-(trifluoromethyl)-1,3-thiazol-5-yl]phenyl}acetamide]	86%	71 nM
N#Cc1cnn(-c2cc(C(F)(F)F)c(NC(=O)Cc3cc(C(F)(F)F)ccc3Cl)cc2S(N)(=O)=O)c1 [Example 486, 2-[2-Chloro-5-(trifluoromethyl)phenyl]-N-[4-(4-cyano-1H-pyrazol-1-yl)-5-sulfamoyl-2-(trifluoromethyl)phenyl]acetamide]	71%	7340 nM
N#Cc1cnn(-c2ccc(NC(=O)Cc3ccccc3Cl)c(C(F)(F)F)c2S(N)(=O)=O)c1 [Example 487, 2-(2-Chlorophenyl)-N-[4-(4-cyano-1H-pyrazol-1-yl)-3-sulfamoyl-2-(trifluoromethyl)phenyl]acetamide]	45%	> 25000 nM
NS(=O)(=O)c1cc(NC(=O)Cc2ccccc2Cl)c(C(F)(F)F)cc1-c1cnn(C(F)F)c1 [Example 491, 2-(2-Chlorophenyl)-N-{4-[1-(difluoromethyl)-1H-pyrazol-4-yl]-5-sulfamoyl-2-(trifluoromethyl)phenyl}acetamide]	67%	9090 nM
NS(=O)(=O)c1cc(NC(=O)Cc2ccccc2Cl)ccc1-c1cnn(C(F)F)c1C(F)(F)F [Example 492, 2-(2-Chlorophenyl)-N-{4-[1-(difluoromethyl)-5-(trifluoromethyl)-1H-pyrazol-4-yl]-3-sulfamoylphenyl}acetamide]	92%	531 nM
NS(=O)(=O)c1c(-c2cnn(C(F)F)c2)ccc(NC(=O)Cc2ccccc2Cl)c1F [Example 493, 2-(2-Chlorophenyl)-N-{4-[1-(difluoromethyl)-1H-pyrazol-4-yl]-2-fluoro-3-sulfamoylphenyl}acetamide]	90%	228 nM

From patent publication US11524938B2, “Aromatic sulfonamide derivatives” (Bayer Pharma Aktiengesellschaft, priority 2016, dated 2022)
